Experiments:
[1] = Pramlintide on satiation and binge eating (Binge Eating Scale), single-blind placebo-controlled study in obese subjects; type: in vivo, human
Description: The ability of the amylin agonist pramlintide to control or influence eating behavior was examined in human subjects. For the assessment, 24 hour-food intake (FI, ad-libitum meals), weight, feelings of hunger and fullness, and binge-eating (Binge Eating Scale, BES) were measured in a single-blind, placebo-controlled study. Obese subjects without eating disorders (50/50% female/male; BMI 35.61±3.98 kg/m^2, mean±SD) were randomized to six weeks of treatment with pramlintide or placebo. Pramlintide (180 μg) was administered subcutaneously three times per day (TID) prior to meals for 6 weeks and no lifestyle intervention was provided (TID evaluable N=59, placebo evaluable N=25). […] A follow-up evaluation of the subjects was performed four weeks after cessation of the treatment. In addition to the measurement of food intake and weight, subjects were also assessed for the feelings of hunger and fullness over a 12-hour observation period on the day before treatment, the first day of treatment, and on Day 43. During the study, subjects were categorized by binge-eating severity as mild, moderate, or severe based on total BES scores.

[2] = human trials; cited from earlier work
[3] = Pramlintide on weight and anthropometric parameters, 16-week double-blind placebo-controlled study in obese subjects; type: in vivo, human
Description: In a randomized, double-blind, placebo-controlled study, changes in body weight and anthropometric parameters, as well as indicators of glycemic control (e.g., HbA1c), serum lipids and glucose tolerance, were assessed in response to pramlintide administration to obese (BMI≧30 kg/m^2 to ≦50 kg/m^2) non-diabetic individuals and obese individuals with non-insulin treated type 2 diabetes mellitus.

[4] = Adsorption onto glass container in liquid form; type: physicochemical
[5] = Combination therapy amylin + sibutramine in DIO prone rats; type: in vivo, rat; settings: two weeks; for change in body weight (vehicle-corrected): amylin 100 μg/kg/day and/or sibutramine 3 mg/kg/day by mini-pumps; for fat mass / lean (protein) mass: amylin 100 μg/kg/day and/or sibutramine 3 mg/kg/day
Description: In-bred DIO prone rats were obtained from Charles Rivers Labs. These rats were developed from a line of Crl:CD®(SD)BR rats that are prone to become obese on a diet relatively high in fat and energy (Levin, 1997). The rats were housed individually in shoebox cages at 22° C. in a 12/12-hour light dark cycle. […] At the end of the fattening period they typically have a mean body weight of 500 g. Rats were then divided into treatment groups and implanted with two subcutaneous mini-pumps (Durect Corp).

[6] = Effect of amylin on sucrose food preference, sugar withdrawal and restraint stress; type: in vivo, rat
Description: The ability of amylin to modify food preference was examined in an animal model. Male, Sprague-Dawley® rats were submitted to a sugar withdrawal paradigm and observed for effects of stress on sugar intake. […] All rats were provided with ad libitum access to standard chow, water, and a 30% sucrose drink. Subsequently, the sucrose drink was removed and half of the rats were subjected, daily, to 3 h of mild restraint stress for 3 successive days. After 3 days, sucrose was provided and its daily average consumption was measured over 4 days. Chow intake was also measured over the 3 days of withdrawal and stress and over the following 4 days when sucrose was re-introduced. No restraint was applied during the 4 days of sucrose re-introduction. Results of this assay are shown in FIG. 1(A-D) where * is P<0.05 by ANOVA and Fisher LSD post-hoc analyses.

[7] = Effect of amylin on body composition in DIO prone rats, 14 days of treatment then washout; type: in vivo, rat
Description: Diet-induced obesity (DIO) in the in the Sprague-Dawley rat is a valuable model for the study of obesity and regulation of energy homeostasis. […] All rats were housed individually in shoebox cages at 22° C. in a 12/12-hour light dark cycle. Amylin was administered by subcutaneous osmotic mini-pump (Durect Corp, Calif.). […] On day 14, mini-pumps were removed and replaced with pumps containing vehicle. For body composition, rats were scanned in a specialized rodent NMR machine (Echo Medical Systems) prior to drug treatment, and at the conclusion of the experiment, which enabled the calculation of percent changes in fat and lean composition (e.g., % body fat after treatment−% body fat at baseline=change in % body fat).

[8] = Effect of amylin on high fat food preference, 11-week osmotic pump treatment; type: in vivo, rat
Description: The ability of amylin to modify food preference was examined in an animal model. […] Animals had access to both low fat chow (6% fat kcal, 54% cornstarch kcal; #7012, Harlan Teklad, Madison, Wis.) and high fat chow (“palatable chow”) (58% fat kcal and 26% sucrose kcal; #D12311, Research Diets, New Brunswick, N.J.). Food intake and body weight were measured weekly. Just prior to treatment, and at the end of treatment, the amount of fat and lean tissue (expressed as g of tissue per 100 g of body weight) was measured via MRI (Echo MRI for rats, EchoMRI, Houston, Tex.).
Energy expenditure was assessed using an Oxymax animal monitoring system (Columbus Instruments, Columbus, Ohio) to measure oxygen consumption and carbon dioxide generation over time. From these measurements, heat (in kcal) was calculated and energy expenditure assessed.

[9] = e.g., provoking marked hyperlactemia followed by hyperglycemia; cited from earlier work
[10] = cited from earlier work
[11] = CSI (N = 47), Baseline (Day −1)
[12] = TID (N = 59), Baseline (Day −1)
[13] = pramlintide 180 μg s.c. TID, after 6 weeks
[14] = 16 weeks, least squares mean±SE
[15] = after 16 weeks, evaluable population
[16] = day 28, after amylin days 1-14 and vehicle days 15-28
[17] = rat amylin 100 μg/kg/d s.c. mini-pump, days 2-14, vs vehicle controls
[18] = at 11 weeks, compared to controls

For `CC[C@H](C)[C@H](NC(=O)[C@@H]1CCCN1C(=O)CNC(=O)[C@H](Cc1ccccc1)NC(=O)[C@H](CC(N)=O)NC(=O)[C@H](CC(N)=O)NC(=O)[C@H](CO)NC(=O)[C@H](CO)NC(=O)[C@H](Cc1c[nH]cn1)NC(=O)[C@@H](NC(=O)[C@H](CC(C)C)NC(=O)[C@H](Cc1ccccc1)NC(=O)[C@H](CC(N)=O)NC(=O)[C@H](C)NC(=O)[C@H](CC(C)C)NC(=O)[C@H](CCCNC(=N)N)NC(=O)[C@H](CCC(N)=O)NC(=O)[C@@H](NC(=O)[C@H](C)NC(=O)[C@@H]1CSSC[C@H](NC(=O)[C@@H](N)CCCCN)C(=O)N[C@@H](CC(N)=O)C(=O)N[C@@H]([C@@H](C)O)C(=O)N[C@@H](C)C(=O)N[C@@H]([C@@H](C)O)C(=O)N1)[C@@H](C)O)C(C)C)C(=O)N[C@@H](CC(C)C)C(=O)N1CCC[C@H]1C(=O)N1CCC[C@H]1C(=O)N[C@H](C(=O)N[C@@H](CC(N)=O)C(=O)N[C@H](C(=O)NCC(=O)N[C@@H](CO)C(=O)N[C@@H](CC(N)=O)C(=O)N[C@H](C(=O)N[C@@H](Cc1ccc(O)cc1)C(N)=O)[C@@H](C)O)C(C)C)[C@@H](C)O` [Pramlintide, ^25,28,29Pro-h-amylin], the “reduction of mean total caloric intake compared with pooled placebo” value (“reduction of mean total caloric intake” below) ([1]; CSI 50 μg/h, Day 43) was ~7%, the “reduction of mean total caloric intake” value ([1]; CSI 50 μg/h, first day of treatment) was “approximately 22%” and the “subjects with total BES score >17 to <27 (Moderate)” value (from here on “subjects … (Moderate)”) [1, 11] was “(36.2) %”. The “subjects with total BES score ≦17 (Mild)” value [1, 11] was “(51.1) %”, the “subjects with total BES score ≧27 (Severe)” value (“subjects … (Severe)” for short) [1, 11] was “(12.8) %” and the “subjects … (Moderate)” value ([1]; CSI (N = 47), Day 42) was “(17.0) %”. For the same compound, the “subjects with total BES score ≦17 (Mild)” value ([1]; CSI (N = 47), Day 42) was “(74.5) %”, the “subjects … (Severe)” value ([1]; CSI (N = 47), Day 42) was “(8.5) %” and the “subjects … (Moderate)” value ([1]; CSI (N = 47), Day 72) was “(14.9) %”. The “subjects with total BES score ≦17 (Mild)” value ([1]; CSI (N = 47), Day 72) was “(63.8) %”, the “subjects … (Severe)” value ([1]; CSI (N = 47), Day 72) was “(8.5) %” and the “subjects … (Moderate)” value [1, 12] was “(23.7) %”. The “subjects with total BES score ≦17 (Mild)” value [1, 12] was “(64.4) %”, the “subjects … (Severe)” value [1, 12] was “(8.5) %” and the “subjects with total BES score ≦17 (Mild)” value ([1]; TID (N = 59), Baseline (Day −1), listed as pramlintide) was 64.4%. For the same compound, the “subjects … (Moderate)” value ([1]; TID (N = 59), Day 42) was “(11.9) %”, the “subjects with total BES score ≦17 (Mild)” value ([1]; TID (N = 59), Day 42) was “(83.1) %” and the “subjects … (Severe)” value ([1]; TID (N = 59), Day 42) was “(5.1) %”. The “subjects with total BES score ≦17 (Mild)” value ([1]; TID (N = 59), Day 42, listed as pramlintide) was 83.1%, the “subjects … (Moderate)” value ([1]; TID (N = 59), Day 72) was “(13.6) %” and the “subjects with total BES score ≦17 (Mild)” value ([1]; TID (N = 59), Day 72) was “(76.3) %”. The “subjects … (Severe)” value ([1]; TID (N = 59), Day 72) was “(5.1) %”, the “reduction of mean total caloric intake” value ([1]; TID, Day 43) was ~15% and the “reduction of mean total caloric intake” value ([1]; TID, first day of treatment) was “approximately 17%”. For the same compound, the “placebo-corrected reduction from baseline in mean BES score” value ([1]; after 6 weeks) was −45±13%, the “proportion of subjects shifting to a lower binge-eating severity category” value ([1]; after 6 weeks, placebo […]) was 24.6% and the “reductions from baseline in the total BES score after cessation” value ([1]; four weeks after cessation of treatment) was “no longer statistically significant”. For the same compound, the “placebo-corrected reduction from baseline in 24-hour food intake” value [1, 13] was -489 ± 183 kcal, the “placebo-corrected reduction from baseline in weight” value [1, 13] was −2.2±0.5% and the “weight or weight gain” value [2] was “reduce weight or weight gain”. For the same compound, the “placebo-corrected reduction in hip circumference” value [3, 14] was 2.69±0.82 cm, the “placebo-corrected reduction in waist circumference” value [3, 14] was 2.691±1.08 cm and the “percentage of subjects achieving >5% reduction in baseline body weight” value ([3]; Class I (BMI <35 kg/m^2), n 43, placebo 0%) was 39.5%. For the same compound, the “percentage of subjects achieving >5% reduction in baseline body weight” value ([3]; Class II (BMI ≧35 kg/m^2 to <40 kg/m^2), n 25, placebo 0%) was 28.0%, the “percentage of subjects achieving >5% reduction in baseline body weight” value ([3]; Class II (BMI ≧40 kg/m^2), n 29, placebo 5.0%) was 20.7% and the “placebo-corrected mean weight loss” value [3, 15] was 3.52 kg. For the same compound, the “placebo-corrected mean weight loss, of initial body weight” value [3, 15] was 3.6%, the “subjects who lost ≧5% of body weight” value ([3]; after 16 weeks, placebo 2%) was 31% and the “tendency to adsorb onto the glass” value [4] was “does not have a tendency to adsorb onto the glass”.

For `CC(C)CC(N(C)C)C1(c2ccc(Cl)cc2)CCC1` (stereo not drawn) [sibutramine], the “change in body weight (vehicle-corrected)” value [5] was “approximately 5%”, the fat mass [5] was “Fat mass loss was also evident” and the “lean (protein) mass” value [5] was “relatively unchanged”.

With Rat amylin the “average sucrose to chow consumption ratio (as % of baseline)” value ([6]; rat amylin 300 μg/kg/d by osmotic pump, restraint-stressed rats, 4 days of sucrose re-introduction) was “prevents the increase in the average sucrose to chow consumption ratio”, the sucrose intake ([6]; rat amylin 300 μg/kg/d, stressed and non-stressed rats, vs vehicle treated controls) was “decreases sucrose intake in both stressed and non-stressed conditions” and the “stress-induced decrease in chow intake and total kcals” value ([6]; rat amylin 300 μg/kg/d, treatment group vs control group) was “less pronounced in the treatment group”. For the same compound, the “change in body weight (vehicle-corrected)” value [5] was “approximately 5%”, the fat mass [5] was “Fat mass loss was also evident” and the “lean (protein) mass” value [5] was “increased”. For the same compound, the “percent of body fat” value [7, 16] was “lower percent of body fat”, the “percent of lean body mass” value [7, 16] was “higher percent of lean body mass” and the body weight [7, 17] was “significantly decreased”. For the same compound, the cumulative food intake [7, 17] was “significantly decreased”, the “24 h energy expenditure, dark phase increase” value [8, 18] was 6.6% and the “24 h energy expenditure, light phase increase” value [8, 18] was 9.7%. For the same compound, the “fat mass, change in percent of total mass” value ([8]; pre- vs post-treatment, MRI, vehicle 3.7±0.9) was −3.6±1.0%, the “lean tissue, change in percent of total mass” value ([8]; pre- vs post-treatment, MRI, vehicle −0.53±0.21, not significant) was 0.08±0.23% and the “percent total calories from low fat chow (main effect)” value ([8]; rat amylin 300 μg/kg/d, 11 weeks, vehicle 4.3±0.6) was 12.2±3.2%. The body weight gain ([8]; rat amylin 300 μg/kg/d, 11 weeks, vehicle 126±10) was 50 ± 11 g, the “calories from low fat chow (main effect)” value ([8]; rat amylin 300 μg/kg/d, 11 weeks, vehicle 271±42) was 633 ± 145 kcal and the “calories from high fat chow over 11 weeks (FIG. 2)” value ([8]; rat amylin 300 μg/kg/d, 11 weeks, vehicle 6315±111, mean±SEM) was 5309 ± 202 kcal.

For “^18Arg^25,28Pro-h-amylin (KCNTATCATQRLANFLVRSSNNFGPILPSTNVGSNTY)”, the “amylin activity in vivo” value [9] is listed as “show amylin activity in vivo” and the “solubility and stability characteristics compared to human amylin” value [10] is listed as “more desirable solubility and stability characteristics”.

For “^25Pro^26Val^28,29Pro-h-amylin (KCNTATCATQRLANFLVHSSNNFGPVLPPTNVGSNTY)”, the “solubility and stability characteristics compared to human amylin” value [10] is given as “more desirable solubility and stability characteristics”.

In the case of “^28Pro-h-amylin (KCNTATCATQRLANFLVHSSNNFGAILPSTNVGSNTY)”, the “amylin activity in vivo” value [9] is given as “show amylin activity in vivo”.

In the case of “des-^1Lys-h-amylin (CNTATCATQRLANFLVHSSNNFGAILSSTNVGSNTY)”, the “amylin activity in vivo” value [9] is given as “show amylin activity in vivo”.

In the case of “des-^1Lys^18Arg^25,28Pro-h-amylin (CNTATCATQRLANFLVRSSNNFGPILPSTNVGSNTY)”, the “amylin activity in vivo” value [9] is listed as “show amylin activity in vivo”.

Reference: patent US8278267B2 (Amylin Pharmaceuticals, LLC, priority 2005, dated 2012)
